Test results published in US20100267561A1, “HERBICIDAL PYRIDAZINONE DERIVATIVES” (priority 2007, published 2010).

Tests used:
Test in all cases: Test B pre-/postemergence plant response
Assay type in all cases: in vivo
[1] = system: blackgrass (Alopecurus myosuroides); details: for Blackgrass plant response rating: 8 g ai/ha
Procedure, shortened: (§1)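 Preemergence and postemergence (plants 2-18 cm, 1- to 4-leaf stage) applications used test chemicals in a non-phytotoxic solvent with surfactant. Plants were held in a greenhouse 13 to 15 days, then rated visually against controls on a 0-100 scale (0 no effect, 100 complete control).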

[2] = system: catchweed bedstraw (Galium aparine); details: Preemergence; for Galium plant response rating: scale 0 to 100
Procedure, shortened: as §1

[3] = system: cocklebur (Xanthium strumarium); details: for Cocklebur plant response rating: 8 g ai/ha
Procedure, shortened: as §1

[4] = system: common ragweed (Ambrosia elation)
Procedure, shortened: as §1

[5] = system: corn (Zea mays)
Procedure, shortened: as §1

[6] = system: green foxtail (Setaria viridis)
Procedure, shortened: as §1

[7] = system: kochia (Kochia scoparia)
Procedure, shortened: as §1

[8] = system: lambsquarters (Chenopodium album)
Procedure, shortened: as §1

[9] = system: large crabgrass (Digitaria sanguinalis)
Procedure, shortened: as §1

[10] = system: pigweed (Amaranthus retroflexus)
Procedure, shortened: as §1

[11] = system: velvetleaf (Abutilon theophrasti)
Procedure, shortened: as §1

[12] = system: wild oat (Avena fatua)
Procedure, shortened: as §1

[13] = system: woolly cupgrass (Eriochloa villosa)
Procedure, shortened: as §1

[14] = system: yellow nutsedge (Cyperus esculentus)
Procedure, shortened: as §1

[15] = Postemergence, 16 g ai/ha, scale 0 to 100
[16] = Postemergence, 31 g ai/ha, scale 0 to 100
[17] = Postemergence, 62 g ai/ha, scale 0 to 100, 0 no effect, 100 complete control
[18] = Preemergence, 16 g ai/ha, scale 0 to 100 (0 no effect, 100 complete control)
[19] = Preemergence, 31 g ai/ha, scale 0 to 100 (0 no effect, 100 complete control)
[20] = Preemergence, 62 g ai/ha, 0 to 100 scale, 0 no effect, 100 complete control
[21] = 8 g ai/ha, postemergence, 0-100 scale
[22] = Preemergence, 8 g ai/ha, scale 0 to 100
[23] = Preemergence, 16 g ai/ha, scale 0 to 100

CCCC(=O)Oc1cnn(C)c(=O)c1-n1nc(-c2ccc(Cl)cc2)cc1C [Compound 56]
Blackgrass plant response rating ([1]; postemergence, 0-100 scale): 0
Plant response rating, Blackgrass [1, 15]: 65
Plant response rating, Blackgrass [1, 16]: 95
Plant response rating, Blackgrass [1, 17]: 98
Plant response rating, Blackgrass [1, 18]: 60
Plant response rating, Blackgrass [1, 19]: 98
Plant response rating, Blackgrass [1, 20]: 98
Blackgrass plant response rating ([1]; Preemergence, scale 0 to 100): 40
Plant response rating, Galium ([2]; 31 g ai/ha, scale 0 to 100 (0 no effect, 100 complete control)): 0
Plant response rating, Galium ([2]; 62 g ai/ha, 0 to 100 scale, 0 no effect, 100 complete control): 0
Galium plant response rating ([2]; 8 g ai/ha): 0
Galium plant response rating ([2]; 16 g ai/ha): 0
Cocklebur plant response rating ([3]; postemergence, 0-100 scale): 0
Plant response rating, Cocklebur [3, 15]: 0
Plant response rating, Cocklebur [3, 16]: 0
Plant response rating, Cocklebur [3, 17]: 0
Plant response rating, Cocklebur [3, 18]: 0
Plant response rating, Cocklebur [3, 19]: 0
Plant response rating, Cocklebur [3, 20]: 0
Cocklebur plant response rating ([3]; Preemergence, scale 0 to 100): 0
Ragweed plant response rating [4, 21]: 0
Plant response rating, Ragweed [4, 15]: 0
Plant response rating, Ragweed [4, 16]: 0
Plant response rating, Ragweed [4, 17]: 0
Plant response rating, Ragweed [4, 19]: 0
Plant response rating, Ragweed [4, 20]: 0
Ragweed plant response rating [4, 22]: 0
Ragweed plant response rating [4, 23]: 0
Corn plant response rating [5, 21]: 75
Plant response rating, Corn [5, 15]: 85
Plant response rating, Corn [5, 16]: 95
Plant response rating, Corn [5, 17]: 95
Plant response rating, Corn [5, 19]: 95
Plant response rating, Corn [5, 20]: 95
Corn plant response rating [5, 22]: 0
Corn plant response rating [5, 23]: 10
Foxtail, Green plant response rating [6, 21]: 50
Plant response rating, Foxtail, Green [6, 15]: 90
Plant response rating, Foxtail, Green [6, 16]: 90
Plant response rating, Foxtail, Green [6, 17]: 100
Plant response rating, Foxtail, Green [6, 19]: 100
Plant response rating, Foxtail, Green [6, 20]: 100
Foxtail, Green plant response rating [6, 22]: 65
Foxtail, Green plant response rating [6, 23]: 65
Kochia plant response rating [7, 21]: 0
Plant response rating, Kochia [7, 15]: 0
Plant response rating, Kochia [7, 16]: 0
Plant response rating, Kochia [7, 17]: 0
Plant response rating, Kochia [7, 19]: 98
Plant response rating, Kochia [7, 20]: 100
Kochia plant response rating [7, 22]: 0
Kochia plant response rating [7, 23]: 20
Lambsquarters plant response rating [8, 21]: 0
Plant response rating, Lambsquarters [8, 15]: 0
Plant response rating, Lambsquarters [8, 16]: 0
Plant response rating, Lambsquarters [8, 17]: 0
Plant response rating, Lambsquarters [8, 19]: 0
Plant response rating, Lambsquarters [8, 20]: 20
Lambsquarters plant response rating [8, 22]: 0
Lambsquarters plant response rating [8, 23]: 0
Crabgrass, Large plant response rating [9, 21]: 65
Plant response rating, Crabgrass, Large [9, 15]: 85
Plant response rating, Crabgrass, Large [9, 16]: 95
Plant response rating, Crabgrass, Large [9, 17]: 100
Plant response rating, Crabgrass, Large [9, 19]: 100
Plant response rating, Crabgrass, Large [9, 20]: 100
Crabgrass, Large plant response rating [9, 22]: 0
Crabgrass, Large plant response rating [9, 23]: 60
Pigweed plant response rating [10, 21]: 0
Plant response rating, Pigweed [10, 15]: 0
Plant response rating, Pigweed [10, 16]: 0
Plant response rating, Pigweed [10, 17]: 0
Plant response rating, Pigweed [10, 19]: 0
Plant response rating, Pigweed [10, 20]: 0
Pigweed plant response rating [10, 22]: 0
Pigweed plant response rating [10, 23]: 0
Velvetleaf plant response rating [11, 21]: 0
Plant response rating, Velvetleaf [11, 15]: 0
Plant response rating, Velvetleaf [11, 16]: 0
Plant response rating, Velvetleaf [11, 17]: 0
Plant response rating, Velvetleaf [11, 19]: 0
Plant response rating, Velvetleaf [11, 20]: 0
Velvetleaf plant response rating [11, 22]: 0
Velvetleaf plant response rating [11, 23]: 0
Oat, Wild plant response rating [12, 21]: 5
Plant response rating, Oat, Wild [12, 15]: 85
Plant response rating, Oat, Wild [12, 16]: 90
Plant response rating, Oat, Wild [12, 17]: 90
Plant response rating, Oat, Wild [12, 19]: 60
Plant response rating, Oat, Wild [12, 20]: 90
Oat, Wild plant response rating [12, 22]: 0
Oat, Wild plant response rating [12, 23]: 50
Cupgrass, Woolly plant response rating [13, 21]: 95
Plant response rating, Cupgrass, Woolly [13, 15]: 100
Plant response rating, Cupgrass, Woolly [13, 16]: 100
Plant response rating, Cupgrass, Woolly [13, 17]: 100
Plant response rating, Cupgrass, Woolly [13, 19]: 100
Plant response rating, Cupgrass, Woolly [13, 20]: 100
Cupgrass, Woolly plant response rating [13, 22]: 0
Cupgrass, Woolly plant response rating [13, 23]: 80
Nutsedge, Yellow plant response rating [14, 21]: 0
Plant response rating, Nutsedge, Yellow [14, 15]: 0
Plant response rating, Nutsedge, Yellow [14, 16]: 0
Plant response rating, Nutsedge, Yellow [14, 17]: 0
Plant response rating, Nutsedge, Yellow [14, 19]: 0
Plant response rating, Nutsedge, Yellow [14, 20]: 0
Nutsedge, Yellow plant response rating [14, 22]: 0
Nutsedge, Yellow plant response rating [14, 23]: 0
